Measured values taken from US7238781B2, “Plant defensin polynucleotides and methods of use thereof” (E. I. DuPont de Nemours and Company, priority 1999, dated 2007).

Key:
Assay type in all cases: cell-based
Sclerotinia sclerotiorum = test: In vitro 96 well microtiter plate assay, inhibition of hyphal growth; conditions: 24 hours at 22° C., 2 replicates
Experimental: An in vitro assay was also performed in a 96 well microtiter plate to determine the activity of Pps-AMP1 mature peptide against Sclerotinia sclerotiorum. Test inoculum was started by inoculating ½ strength potato dextrose broth (PDB) liquid with a sterile loop of hyphae from a Sclerotinia culture propagated on ⅛ strength potato dextrose agar (PDA) plate. Liquid inoculum was held at room temperature (22° C.), without shaking, in the dark for 4 days, to allow sufficient growth of hyphae. The resulting suspension was macerated using a polytron tissue grinder. The sample was then diluted to the point of invisibility to the naked eye (observation under microscopy at 40× indicated the presence of hyphal fragments). […] […] Sclerotinia hyphae only, or ½ strength PDB only, were included as negative controls.

[1] = test system: Colletotrichum graminaria; test: Bioactivity of Pps-AMP1 mature peptide against fungal pathogens (spore suspension in 1/2 strength PDB); conditions: concentration at which 90% of fungal growth is inhibited, 48 hour incubation at 28° C.
Experimental: (§1) The purified refolded and lyophilized Pps-AMP1 mature peptide was resuspended in dH2O to a final concentration of about 4 μg/μl. 12 μg of purified Pps-AMP1 mature peptide was added to 200 μl of ½ strength potato dextrose broth (PDB) containing a spore suspension of either Fusarium verticilloides, Colletotrichum graminaria, or Neurospora crassa containing 2500 spores/ml. […] A 0.5× dilution series for Pps-AMP1 mature peptide from 10 μM through to about 0.005 μM was prepared by removing 100 μl of the 10 μM stock and adding it to 100 μl of spore suspension (2500 spores/ml), mixing thoroughly to achieve a 5 μM Pps-AMP1 mature peptide concentration, transferring 100 μl of the 5 μM suspension to a fresh 100 μl spore suspension etc., until about 0.005 μM was reached. Two replicates per pathogen were performed. […] Inhibition of fungal growth was defined as little to no spore germination without detectable hyphae growth. The bioactivity of Pps-AMP1 mature peptide against these fungal pathogens is shown below. The IC90 concentration represents that concentration at which 90% of fungal growth is inhibited.

Fusarium verticilloides = test: as above; conditions: concentration at which 90% of fungal growth is inhibited, 48 hour incubation at 28° C.
Experimental: as §1

Neurospora crassa = test: as above; conditions: concentration at which 90% of fungal growth is inhibited, 48 hour incubation at 28° C.
Experimental: as §1

COC(=O)Nc1nc2ccccc2[nH]1 [MBC standard, methyl 2-benzimidazolecarbamate, reference compound]
inhibition of fungal growth (Sclerotinia sclerotiorum; 0.023 μM): 0.023 μM - moderate inhibition of fungal growth.
inhibition of fungal growth (Sclerotinia sclerotiorum; 17–0.07 μM): 17–0.07 μM - total inhibition of fungal growth.

Pps-AMP1 mature peptide: mature peptide of Picramnia pentandra defensin clone pps.pk0010.g2, expressed in E. coli, refolded and purified (QRLCERASLTWSGNCGNTAHCDNQCRSWEHAQHGACHVRGGKHMCFCYFNC)
IC90 [1]: 2500 nM
IC90 (Fusarium verticilloides): 600 nM
IC90 (Neurospora crassa): 50 nM
inhibition of fungal growth (Sclerotinia sclerotiorum; 2.5 μM - 0.005 μM): 2.5 μM - 0.005 μM no inhibition of fungal growth.
inhibition of fungal growth (Sclerotinia sclerotiorum; 5 μM): 5 μM - moderate inhibiton of fungal growth.
inhibition of fungal growth (Sclerotinia sclerotiorum; 10 μM): 10 μM - total inhibition of fungal growth.
